# Reference: patent publication US20090012056A1, “Quinoline Compounds Capable of Binding the Cb2 and/or the 5-Ht6 Receptor” (GLAXO GROUP LIMITED, priority 2005, published 2009)
# Counter-ions that a name gives are not always drawn.
# Key:
# [1] = target: T1, human cloned 5-HT6 receptors (Homo sapiens, UniProt P50406); assay: Cyclase assay (cAMP production in membranes of HeLa 5HT6 cells, antagonism of 5-HT); assay type: biochemical; details: cyclase assay with 5-HT at 4xEC50, read-out: fpKi (functional pKi, antagonist potency) (converted)
# T1 construct: expressed in transfected cells; host or cells: HeLa cells (membranes)
# Method: 0.5 μl of test compound in 100% dimethylsulfoxide (DMSO) was added to a white, solid 384 well assay plate (for dose response measurements the top of the concentration range is 7.5 μM final). 10 μl of washed membranes of HeLa 5HT6 cells (for preparation see WO 98/27081) in basic buffer (50 mM HEPES pH 7.4 (KOH), 1 mM MgCl2, 100 mM NaCl, 1 μl/ml 3-isobutyl-1-methylxanthine (IBMX) (Sigma-Aldrich)) was added to all wells followed by 10 μl 2×ATP buffer (100 μl/ml ATP and 1 μl/ml 3-Isobutyl-1-methylxanthine (IBMX) (Sigma-Aldrich)) with 5-HT (at a concentration equivalent to a dose response of 4×EC50). The resultant mixture was then incubated at room temperature for 30-45 minutes to allow cAMP production.
# cAMP production was then measured using the DiscoveRx™ HitHunter™ chemiluminescence cAMP assay kit (DiscoveRx Corporation, 42501 Albrae Street, Fremont, Calif. 94538; Product Code: 90-0004L) or any other suitable cAMP measurement assay.
# IC50 values were estimated from arbitrary designated unit (ADU) measurements from a Perkin Elmer Viewlux instrument using a four parameter logistic curve fit within EXCEL (Bowen, W. P. and Jerman, J. C. (1995), Nonlinear regression using spreadsheets. Trends in Pharmacol. Sci., 16, 413-417). Functional Ki values were calculated using the method of Cheng, Y. C. and Prussof, W. H. (Biochemical Pharmacol (1973) 22 3099-3108). pIC50 and fpKi are the negative log 10 of the molar IC50 and functional Ki respectively.
# [2] = target: T2, human cannabinoid CB2 receptor (Homo sapiens, UniProt P34972); assay: Cannabinoid CB2 receptor agonist activity in yeast cells expressing the human CB2 receptor (FDGlu fluorescence); assay type: cell-based; details: 24 hours at 30° C., read-out: pEC50 at the CB2 receptor (agonist activity) (converted)
# T2 construct: expressed in transfected cells; host or cells: Saccharomyces cerevisiae strain MMY23
# Text: Yeast (Saccharomyces cerevisiae) cells expressing the human cannabinoid CB2 receptor were generated by integration of an expression cassette into the ura3 chromosomal locus of yeast strain MMY23. This cassette consisted of DNA sequence encoding the human CB2 receptor flanked by the yeast GPD promoter to the 5′ end of CB2 and a yeast transcriptional terminator sequence to the 3′ end of CB2. MMY23 expresses a yeast/mammalian chimeric G-protein alpha subunit in which the C-terminal 5 amino acids of Gpa1 are replaced with the C-terminal 5 amino acids of human Gαi1/23 (as described in Brown et al. (2000), Yeast 16:11-22). Cells were grown at 30° C. in liquid Synthetic Complete (SC) yeast media (Guthrie and Fink (1991), Methods in Enzymology, Vol. 194) lacking uracil, tryptophan, adenine and leucine to late logarithmic phase (approximately 6 OD600/ml).
# Agonists were prepared as 10 mM solutions in DMSO. EC50 values (the concentration required to produce 50% maximal response) were estimated using 4 fold dilutions of between 3- and 5-fold (BiomekFX, Beckman) into DMSO. Agonist solutions in DMSO (1% final assay volume) were transferred into black microtitre plates from NUNC Greiner (384-well). Cells were suspended at a density of 0.2 OD600/ml in SC media lacking histidine, uracil, tryptophan, adenine and leucine and supplemented with 10 mM 3-aminotriazole, 0.1M sodium phosphate pH 7.0, and 120 μM fluorescein di-β-D-glucopyranoside (FDGlu). This mixture (50 ul per well) was added to agonist in the assay plates (Multidrop 384, Labsystems). After incubation at 30° C. for 24 hours, fluorescence resulting from degradation of FDGlu to fluorescein due to exoglucanase, an endogenous yeast enzyme produced during agonist-stimulated cell growth, was determined using a fluorescence microtitre plate reader (Tecan Spectrofluor or LJL Analyst excitation wavelength: 485 nm; emission wavelength: 535 nm). Fluorescence was plotted against compound concentration and iteratively curve fitted using a four parameter fit to generate a concentration effect value.
# Efficacy (Emax) was calculated from the equation
# Emax=Max[compound X]−Min[compound X]/Max[HU210]−Min[HU210]×100% • where Max[compound X] and Min[compound X] are the fitted maximum and minimum respectively from the concentration effect curve for compound X, and Max[HU210] and Min[HU210] are the fitted maximum and minimum respectively from the concentration effect curve for (6aR,10aR)-3-(1,1′-Dimethylheptyl)-6a,7,10,10a-tetrahydro-1-hydroxy-6,6-dimethyl-6H-dibenzo[b,d]pyran-9-methanol (HU210; available from Tocris). Equieffective molar ratio (EMR) values were calculated from the equation
# EMR=EC50[compound X]/EC50[HU210] • Where EC50 [compound X] is the EC50 of compound X and EC50 [HU210] is the EC50 of HU210. • pEC50 is the negative log of the EC50.
# T2 sequence (P34972 whole entry): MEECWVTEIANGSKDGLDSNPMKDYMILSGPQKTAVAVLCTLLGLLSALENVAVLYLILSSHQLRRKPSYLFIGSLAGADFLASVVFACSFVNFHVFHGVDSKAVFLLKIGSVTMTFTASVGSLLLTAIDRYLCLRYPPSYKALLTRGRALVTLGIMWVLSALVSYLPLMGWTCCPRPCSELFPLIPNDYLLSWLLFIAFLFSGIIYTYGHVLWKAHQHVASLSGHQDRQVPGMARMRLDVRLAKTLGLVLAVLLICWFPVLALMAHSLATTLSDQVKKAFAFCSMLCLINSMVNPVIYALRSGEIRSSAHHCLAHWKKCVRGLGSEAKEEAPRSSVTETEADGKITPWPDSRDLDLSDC
# T1 sequence (P50406 whole entry): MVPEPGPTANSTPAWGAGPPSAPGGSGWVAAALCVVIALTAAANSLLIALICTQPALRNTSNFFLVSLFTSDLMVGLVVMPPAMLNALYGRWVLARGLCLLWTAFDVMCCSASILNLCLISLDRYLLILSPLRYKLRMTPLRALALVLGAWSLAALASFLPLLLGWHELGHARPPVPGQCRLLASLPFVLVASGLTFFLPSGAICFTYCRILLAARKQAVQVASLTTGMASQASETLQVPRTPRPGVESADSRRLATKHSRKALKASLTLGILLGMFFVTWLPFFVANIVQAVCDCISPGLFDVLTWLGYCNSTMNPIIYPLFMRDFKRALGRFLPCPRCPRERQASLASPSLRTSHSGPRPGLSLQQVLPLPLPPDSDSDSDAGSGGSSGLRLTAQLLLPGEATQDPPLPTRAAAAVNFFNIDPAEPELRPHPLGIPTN
smiles,measurement,setting,value
"O=S(=O)(c1ccccc1)c1cnc2c(CN3CCC4(CC3)OCCO4)cccc2c1 [Example 31, 8-(1,4-Dioxa-8-azaspiro[4.5]dec-8-ylmethyl)-3-(phenylsulfonyl)quinoline hydrochloride]",Ki,[1],< 0.1 µM
same,EC50,[2],≤ 10 µM
"O=S1(=O)CCN(Cc2cccc3cc(S(=O)(=O)c4ccccc4)cnc23)CC1 [Example 32, 8-[(1,1-Dioxido-4-thiomorpholinyl)methyl]-3-(phenylsulfonyl)quinoline hydrochloride]",Ki,[1],≤ 1 µM
same,EC50,[2],< 1 µM
"O=S(=O)(c1ccccc1)c1cnc2c(CN3CCC(F)(F)CC3)cccc2c1 [Example 5, 8-[(4,4-Difluoro-1-piperidinyl)methyl]-3-(phenylsulfonyl)quinoline]",Ki,[1],< 0.1 µM
same,EC50,[2],< 1 µM
"O=S(=O)(c1ccccc1)c1cnc2c(CN3CCCC(F)(F)C3)cccc2c1 [Example 27, 8-[(3,3-Difluoropiperidin-1-yl)methyl]-3-(phenylsulfonyl)quinoline hydrochloride]",Ki,[1],> 1 µM
same,EC50,[2],< 1 µM
"CC1CCC(C)N1Cc1cccc2cc(S(=O)(=O)c3ccccc3)cnc12 (stereo not shown) [Example 6, 8-[(2,5-Dimethyl-1-pyrrolidinyl)methyl)-3-(phenylsulfonyl)quinoline]",Ki,[1],< 0.1 µM
same,EC50,[2],≤ 10 µM
"CC1CCCN(Cc2cccc3cc(S(=O)(=O)c4ccccc4)cnc23)C1 (stereo not shown) [Example 30, 8-[(3-Methyl-1-piperidinyl)methyl]-3-(phenylsulfonyl)quinoline hydrochloride]",Ki,[1],< 0.1 µM
same,EC50,[2],< 1 µM
"O=S(=O)(c1ccccc1)c1cnc2c(CN3CCCC3)cccc2c1 [Example 1, 3-(Phenylsulfonyl)-8-(1-pyrrolidinylmethyl)quinoline hydrochloride]",Ki,[1],< 0.1 µM
same,EC50,[2],≤ 10 µM
"CN1CCN(Cc2cccc3cc(S(=O)(=O)c4ccccc4)cnc23)CC1 [Example 3, 8-[(4-Methyl-1-piperazinyl)methyl]-3-(phenylsulfonyl)quinoline]",Ki,[1],< 0.1 µM
same,EC50,[2],> 31.6 µM
"CNCc1cccc2cc(S(=O)(=O)c3ccccc3)cnc12 [Example 26, N-methyl-1-[3-(phenylsulfonyl)-8-quinolinyl]methanamine hydrochloride]",Ki,[1],< 0.1 µM
same,EC50,[2],≤ 10 µM
"CC1CCCCN1Cc1cccc2cc(S(=O)(=O)c3ccccc3)cnc12 (stereo not shown) [Example 29, 8-[(2-Methyl-1-piperidinyl)methyl]-3-(phenylsulfonyl)quinoline hydrochloride]",Ki,[1],≤ 1 µM
same,EC50,[2],≤ 10 µM
"CC(C)NCc1cccc2cc(S(=O)(=O)c3ccccc3)cnc12 [Example 25, N-{[3-(phenylsulfonyl)-8-quinolinyl]methyl}-2-propanamine hydrochloride]",Ki,[1],< 0.1 µM
same,EC50,[2],< 1 µM
"COC1CCN(Cc2cccc3cc(S(=O)(=O)c4ccccc4)cnc23)CC1 [Example 28, 8-[(4-Methoxypiperidin-1-yl)methyl]-3-(phenylsulfonyl)quinoline hydrochloride]",Ki,[1],< 0.1 µM
same,EC50,[2],< 1 µM
"CC(C)N(C)C(C)c1cccc2cc(S(=O)(=O)c3ccccc3)cnc12 (stereo not shown) [Example 20, N-Methyl-N-{1-[3-(phenylsulfonyl)quinolin-8-yl]ethyl}propan-2-amine hydrochloride]",Ki,[1],< 0.1 µM
same,EC50,[2],< 1 µM
"CN(C)Cc1cccc2cc(S(=O)(=O)c3ccccc3)cnc12 [Example 7, N,N-Dimethyl-1-[3-(phenylsulfonyl)quinolin-8-yl]methanamine]",Ki,[1],< 0.1 µM
same,EC50,[2],≤ 10 µM
